From patent publication US20220372040A1, “METTL3 MODULATORS” (Accent Therapeutics, Inc., priority 2020, published 2022)

Experiments:
Format in all cases: biochemical
METTL3/METTL14 = METTL3/METTL14 (Homo sapiens, UniProt Q86U44); experiment: METTL3-14 standard enzyme assay (3H-SAM flashplate scintillation); conditions: METTL3/METTL14 2.5 nM, RNA 100 nM, 3H-SAM 100 nM, 30 min
Method: METTL3-14 Standard Enzyme Assay
(§1) Assays were performed in a 25 μl-volume in 384-well V-bottom polypropylene microplates (Greiner Bio-One, cat. No. 781280) at ambient temperature. Optimized 1× assay buffer was 20 mM HEPES pH 7.5, 50 mM KCl, 250 μM MgCl2, 1 mM DTT, 0.01% Tween, 0.01% BSG, 0.004 U/μl RNAseOUT (cat. No. 10777019, ThermoFisher Scientific, Waltham, Mass.). For compound screening METTL3/METTL14 (final concentration, f.c.=2.5 nM) was added using a Multidrop Combi (ThermoFisher Scientific, Waltham, Mass.) and preincubated for 5 min. Reactions were started by adding 3′ biotinylated RNA (UCUGGACUAAA-biotin) (f.c.=100 nM) and 3H-SAM (f.c.=100 nM) substrates. Reactions proceeded for 30 minutes and were quenched with excess non-radioactive SAM (f.c.=15 μM). The reactions were then transferred to streptavidin-coated flashplates and incubated for 2 hours at 25° C. Following two washing cycles with 0.1% Tween-20, the plates were sealed and read on a TopCount (PerkinElmer, Waltham, Mass.) plate-based scintillation counter. For determination of kinetic parameters, reaction times were optimized so that measurements were taken during the initial velocity phase of the reaction.

METTL16 = molecular target: T1, METTL16 (Homo sapiens, UniProt Q86W50); experiment: METTL16 assay (3H-SAM flashplate scintillation); conditions: METTL16 100 nM, RNA 50 nM, 3H-SAM 200 nM, SAM 800 nM, 20 min
T1 sequence (Q86W50 1-562): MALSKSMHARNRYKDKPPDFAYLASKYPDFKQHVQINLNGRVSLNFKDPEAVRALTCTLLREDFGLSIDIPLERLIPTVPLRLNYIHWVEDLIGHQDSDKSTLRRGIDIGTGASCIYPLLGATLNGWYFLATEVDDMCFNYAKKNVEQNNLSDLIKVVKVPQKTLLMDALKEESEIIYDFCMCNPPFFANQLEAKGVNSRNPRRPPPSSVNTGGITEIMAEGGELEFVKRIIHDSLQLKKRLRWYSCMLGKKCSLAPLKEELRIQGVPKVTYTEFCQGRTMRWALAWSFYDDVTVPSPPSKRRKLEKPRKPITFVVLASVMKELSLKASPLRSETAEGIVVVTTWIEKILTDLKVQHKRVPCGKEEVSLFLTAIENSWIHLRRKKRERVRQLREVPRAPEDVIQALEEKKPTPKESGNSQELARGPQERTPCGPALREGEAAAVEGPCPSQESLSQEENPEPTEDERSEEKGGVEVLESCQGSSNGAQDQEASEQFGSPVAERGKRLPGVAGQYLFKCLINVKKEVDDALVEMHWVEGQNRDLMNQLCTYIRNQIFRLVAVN
Method: Assays were performed in a 25 μl-volume in 384-well V-bottom polypropylene microplates (Greiner Bio-One, cat. No. 781280) at ambient temperature. Optimized 1× assay buffer was 20 mM HEPES pH 7.5, 50 mM KCl, 1 mM DTT, 0.01% Tween, 0.01% BSG, 0.004 U/μl RNAseOUT (cat. No. 10777019, ThermoFisher Scientific, Waltham, Mass.). For compound screening METTL16 (final concentration, f.c.=100 nM) was added using a Multidrop Combi (ThermoFisher Scientific, Waltham, Mass.) and preincubated for 5 min. Reactions were started by adding 3′ biotinylated RNA ([…]-biotin) (f.c.=50 nM), 3H-SAM (f.c.=200 nM) and non-radiolabeled SAM (f.c.=800 nM) substrates. Reactions proceeded for 20 minutes and were quenched with excess non-radioactive SAM (f.c.=100 μM). The reactions were then transferred to streptavidin-coated flashplates and incubated for 2 hours at 25° C. Following two washing cycles with 0.1% Tween-20, the plates were sealed and read on a TopCount (PerkinElmer, Waltham, Mass.) plate-based scintillation counter. For determination of kinetic parameters, reaction times were optimized so that measurements were taken during the initial velocity phase of the reaction.

PRMT5-MEP50 = PRMT5-MEP50 (Homo sapiens, UniProt O14744); experiment: PRMT5 assay (3H-SAM flashplate scintillation); conditions: PRMT5-MEP50 2.5 nM, histone H4 peptide 100 nM, 3H-SAM 250 nM, 60 min
Chain of PRMT5-MEP50 (O14744 whole entry): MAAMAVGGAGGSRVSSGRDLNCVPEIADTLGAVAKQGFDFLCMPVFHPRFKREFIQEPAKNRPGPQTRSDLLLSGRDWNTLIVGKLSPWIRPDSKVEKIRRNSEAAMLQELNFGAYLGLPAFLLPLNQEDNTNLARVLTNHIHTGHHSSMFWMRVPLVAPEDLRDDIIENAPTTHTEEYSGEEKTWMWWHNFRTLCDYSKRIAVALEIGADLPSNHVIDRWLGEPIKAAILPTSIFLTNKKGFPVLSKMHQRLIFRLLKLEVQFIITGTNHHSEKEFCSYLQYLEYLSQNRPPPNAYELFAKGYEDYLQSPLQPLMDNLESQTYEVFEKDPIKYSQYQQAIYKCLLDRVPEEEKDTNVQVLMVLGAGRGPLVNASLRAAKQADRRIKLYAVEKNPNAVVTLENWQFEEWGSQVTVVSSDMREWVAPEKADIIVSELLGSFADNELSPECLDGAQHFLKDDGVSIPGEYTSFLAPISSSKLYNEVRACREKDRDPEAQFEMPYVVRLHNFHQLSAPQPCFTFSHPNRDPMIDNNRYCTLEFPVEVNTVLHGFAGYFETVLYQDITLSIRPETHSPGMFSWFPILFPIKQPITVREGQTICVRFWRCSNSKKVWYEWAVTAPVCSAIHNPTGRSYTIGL
Chain of PRMT5-MEP50 (Q9BQA1 whole entry partner): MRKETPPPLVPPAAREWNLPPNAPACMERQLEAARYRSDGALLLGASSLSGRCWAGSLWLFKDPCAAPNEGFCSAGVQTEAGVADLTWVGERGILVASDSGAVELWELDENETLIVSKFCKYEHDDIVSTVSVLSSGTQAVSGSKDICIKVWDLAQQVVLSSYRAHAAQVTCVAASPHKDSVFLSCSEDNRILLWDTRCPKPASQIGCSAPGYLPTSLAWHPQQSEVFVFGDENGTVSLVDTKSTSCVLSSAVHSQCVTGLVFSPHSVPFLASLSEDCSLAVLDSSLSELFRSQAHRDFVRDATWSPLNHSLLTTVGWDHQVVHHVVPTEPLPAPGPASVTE
Method: Assays were performed in a 25 μl-volume in 384-well V-bottom polypropylene microplates (Greiner Bio-One, cat. No. 781280) at ambient temperature. Optimized 1× assay buffer was 20 mM Tris-HCl pH 8.0, 1 mM DTT, […]. For compound screening PRMT5-MEP50 (final concentration, f.c.=2.5 nM) was added using a Multidrop Combi (ThermoFisher Scientific, Waltham, Mass.) and preincubated for 5 min. Reactions were started by adding 3′ biotinylated histone H4 peptide acetylated on serine 1 (Ac-[…]-Biotin) (f.c.=100 nM) and 3H-SAM (f.c.=250 nM) substrates. Reactions proceeded for 60 minutes and were quenched with excess non-radioactive SAM (f.c.=15 μM). The reactions were then transferred to streptavidin-coated flashplates and incubated for 2 hours at 25° C. Following two washing cycles with 0.1% Tween-20, the plates were sealed and read on a TopCount (PerkinElmer, Waltham, Mass.) plate-based scintillation counter. For determination of kinetic parameters, reaction times were optimized so that measurements were taken during the initial velocity phase of the reaction.

METTL1/WDR4 = METTL1/WDR4 (Homo sapiens, UniProt Q9UBP6); experiment: METTL1 assay (3H-SAM flashplate scintillation); conditions: METTL1/WDR4 6.25 nM, RNA 25 nM, 3H-SAM 60 nM, 20 min; read-out: METTL1 IC50
Chain of METTL1/WDR4 (Q9UBP6 whole entry, species assumed): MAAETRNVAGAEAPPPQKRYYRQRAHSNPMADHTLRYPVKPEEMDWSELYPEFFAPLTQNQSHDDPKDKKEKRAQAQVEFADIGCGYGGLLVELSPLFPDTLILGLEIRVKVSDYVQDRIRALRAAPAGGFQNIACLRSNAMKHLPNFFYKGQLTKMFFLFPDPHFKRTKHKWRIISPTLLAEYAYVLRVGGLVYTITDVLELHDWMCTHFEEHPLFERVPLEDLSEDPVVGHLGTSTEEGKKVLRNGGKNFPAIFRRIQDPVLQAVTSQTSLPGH
Chain of METTL1/WDR4 (P57081 whole entry partner, species assumed): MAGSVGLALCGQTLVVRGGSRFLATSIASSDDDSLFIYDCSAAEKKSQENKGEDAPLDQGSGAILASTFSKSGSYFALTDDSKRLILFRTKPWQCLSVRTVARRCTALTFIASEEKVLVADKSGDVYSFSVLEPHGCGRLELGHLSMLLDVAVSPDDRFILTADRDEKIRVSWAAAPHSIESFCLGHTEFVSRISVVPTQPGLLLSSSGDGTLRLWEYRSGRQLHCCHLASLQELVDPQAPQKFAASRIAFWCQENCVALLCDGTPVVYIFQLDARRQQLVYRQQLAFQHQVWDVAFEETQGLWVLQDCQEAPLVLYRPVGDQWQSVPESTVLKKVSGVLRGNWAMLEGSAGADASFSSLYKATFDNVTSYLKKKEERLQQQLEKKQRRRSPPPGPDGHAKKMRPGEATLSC
Method: as §1, with “METTL1/WDR4” for “METTL3/METTL14”, “f.c.=6.25” for “f.c.=2.5”, “([…]-biotin) (f.c.=25” for “(UCUGGACUAAA-biotin) (f.c.=100”, “(f.c.=60” for “(f.c.=100”, “20” for “30”

Chain of METTL3/METTL14 (Q86U44 whole entry, species assumed): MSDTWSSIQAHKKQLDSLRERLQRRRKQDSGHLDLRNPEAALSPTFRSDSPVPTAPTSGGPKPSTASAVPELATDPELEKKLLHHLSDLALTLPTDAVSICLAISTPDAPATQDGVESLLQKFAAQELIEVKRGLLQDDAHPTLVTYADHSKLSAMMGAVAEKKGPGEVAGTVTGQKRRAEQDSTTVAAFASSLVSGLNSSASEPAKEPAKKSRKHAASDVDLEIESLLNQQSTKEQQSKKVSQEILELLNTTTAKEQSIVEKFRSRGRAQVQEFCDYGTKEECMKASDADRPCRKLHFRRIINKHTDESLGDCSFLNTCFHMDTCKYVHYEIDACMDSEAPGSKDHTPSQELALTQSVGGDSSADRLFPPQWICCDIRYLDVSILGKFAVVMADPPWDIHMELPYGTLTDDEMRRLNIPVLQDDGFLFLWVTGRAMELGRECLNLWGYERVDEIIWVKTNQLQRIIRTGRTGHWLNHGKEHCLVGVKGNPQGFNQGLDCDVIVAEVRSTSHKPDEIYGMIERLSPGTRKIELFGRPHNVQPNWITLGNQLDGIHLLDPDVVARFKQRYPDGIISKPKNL
Chain of METTL3/METTL14 (Q9HCE5 whole entry partner, species assumed): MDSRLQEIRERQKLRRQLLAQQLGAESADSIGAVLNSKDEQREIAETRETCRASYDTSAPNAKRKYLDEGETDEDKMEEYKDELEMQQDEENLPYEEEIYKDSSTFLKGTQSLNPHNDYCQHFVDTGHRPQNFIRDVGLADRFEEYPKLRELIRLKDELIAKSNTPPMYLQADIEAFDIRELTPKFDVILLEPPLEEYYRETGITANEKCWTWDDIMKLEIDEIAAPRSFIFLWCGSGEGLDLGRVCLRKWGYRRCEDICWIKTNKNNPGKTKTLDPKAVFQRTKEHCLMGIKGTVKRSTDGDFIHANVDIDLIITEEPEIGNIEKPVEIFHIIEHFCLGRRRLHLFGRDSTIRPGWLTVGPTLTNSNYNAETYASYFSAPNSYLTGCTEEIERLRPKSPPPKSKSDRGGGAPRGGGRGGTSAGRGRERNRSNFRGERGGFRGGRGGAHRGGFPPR

Row | IC50 (METTL3/METTL14) [µM] | IC50 (METTL16) [µM] | IC50 (PRMT5-MEP50) [µM] | Compound | IC50 (METTL1/WDR4) [µM]
1 | 0.01 to 0.1 | > 1 | > 1 | Nc1ncnc2c1ccn2-c1cncc(COc2ccc3ccc(N4CCCC4)nc3c2)c1 [Compound I-26] | 
2 | 0.01 to 0.1 | > 1 | > 1 | CNc1ccc2ccc(OCc3cncc(-n4cc(CCN(C)C)c5c(N)ncnc54)c3)cc2n1 [Compound I-27] | 
3 | > 1 | > 1 | > 1 | C=CC(=O)Nc1nc(N)c2ccn(-c3cncc(COc4ccc5ccc(NC)nc5c4)c3)c2n1 [Compound I-31] | 
4 | 0.01 to 0.1 | > 1 | > 1 | CC(C)Nc1ccc2ccc(OCc3cncc(-n4cc(Cl)c5c(N)ncnc54)c3)cc2n1 [Compound I-39] | 
5 | 0.01 to 0.1 | > 1 | > 1 | Nc1ncnc2c1c(Cl)cn2-c1cncc(COc2ccc3ccc(N4CCCC4)nc3c2)c1 [Compound I-40] | 
6 | > 1 | > 1 | > 1 | C=CC(=O)N(CCC(=O)O)c1nc(N)c2ccn(-c3cncc(COc4ccc5ccc(NC)nc5c4)c3)c2n1 [Compound I-41] | 
7 | 0.01 to 0.1 | > 1 | > 1 | CNc1ccc2ccc(OCc3cccc(-n4cc(Br)c5c(N)ncnc54)c3)cc2n1 [Compound I-43] | 
8 | 0.01 to 0.1 | > 1 | > 1 | CNc1ccc2ccc(OCc3cncc(-n4ccc5c(C)ncnc54)c3)cc2n1 [Compound I-44] | 
9 | > 1 | > 1 | > 1 | CNc1ccc2ccc(OCc3cncc(-n4ccc5c(N)nc(N(C)C)nc54)c3)cc2n1 [Compound I-49] | 
10 | > 1 | > 1 | > 1 | CNc1ccc2ccc(OCc3cncc(-n4ccc5c(N)nc(NC)nc54)c3)cc2n1 [Compound I-50] | 
11 | 0.01 to 0.1 | > 1 | > 1 | CNc1ccc2ccc(CCc3cncc(-n4cc(Cl)c5c(N)ncnc54)c3)cc2n1 [Compound I-51] | 
12 | 0.01 to 0.1 | > 1 | > 1 | Cc1cc(N)c2ccc(OCc3cncc(-n4cc(Cl)c5c(N)ncnc54)c3)cc2n1 [Compound I-53] | 
13 | 0.1 to 1 | > 1 | > 1 | CNc1ccc2ccc(OCc3cncc(-n4ccc5c(N)nc(N)nc54)c3)cc2n1 [Compound I-56] | 
14 | 0.1 to 1 | > 1 | > 1 | CNc1ccc2ccc(OCc3cncc(-n4cc(C5CCCC5)c5cncnc54)c3)cc2n1 [Compound I-57] | 
15 | 0.1 to 1 | > 1 | > 1 | CNc1ccc2ccc(OCc3cc(OC)cc(-n4cc(Cl)c5c(N)ncnc54)c3)cc2n1 [Compound I-82] | 
16 | > 1 | > 1 | > 1 | CNc1ccc2ccc(OCc3cc(-n4cc(Cl)c5c(N)ncnc54)ccc3OC)cc2n1 [Compound I-83] | 

Row | Compound | IC50 (METTL3/METTL14) [µM] | IC50 (METTL16) [µM] | IC50 (PRMT5-MEP50) [µM] | IC50 (METTL1/WDR4) [µM]
17 | CNc1ccc2ccc(OCc3cc(-n4cc(Cl)c5c(N)ncnc54)cnc3N)cc2n1 [Compound I-28] | 0.01 to 0.1 | > 1 | > 1 | > 1
18 | CNc1ccc2ccc(OCc3cccc(-n4cc(CCN(C)C)c5c(N)ncnc54)c3)cc2n1 [Compound I-32] | 0.1 to 1 | > 1 | > 1 | > 1
19 | CNc1ccc2ccc(OCc3cncc(-n4cc(C5CCN(C)CC5)c5c(N)ncnc54)c3)cc2n1 [Compound I-33] | 0.1 to 1 | > 1 | > 1 | > 1
20 | CNc1ccc2ccc(OCc3nnc(-n4cc(Cl)c5c(N)ncnc54)s3)cc2n1 [Compound I-62] | > 1 | > 1 | 0.01 to 0.1 | > 1
21 | CNc1ccc2ccc(OCc3cc(-n4cc(Cl)c5c(N)ncnc54)ncn3)cc2n1 [Compound I-64] | > 1 | > 1 | > 1 | > 1
22 | Cc1cc(N)c2ccc(OCc3cccc(-n4cc(Cl)c5c(N)ncnc54)c3)cc2n1 [Compound I-65] | 0.01 to 0.1 | > 1 | > 1 | > 1
23 | Cc1cc(N)c2ccc(OCc3cccc(-n4ccc5c(N)ncnc54)c3)cc2n1 [Compound I-66] | 0.1 to 1 | > 1 | > 1 | > 1
24 | Nc1ncnc2c1c(Cl)cn2-c1cccc(COc2ccc3ccc(NCC4CC4)nc3c2)c1 [Compound I-67] | 0.1 to 1 | > 1 | > 1 | > 1
25 | Nc1ncnc2c1c(C1CCCC1)cn2-c1cncc(COc2ccc3ccc(N4CCC4)nc3c2)c1 [Compound I-94] | < 0.01 |  | > 1 | > 1
26 | CCCC(=O)c1cn(-c2cncc(COc3ccc4ccc(NC)nc4c3)c2)c2ncnc(N)c12 [Compound I-96] | 0.01 to 0.1 |  | > 1 | > 1
27 | Cc1cc(NCCN(C)CCCc2ccccc2)c2ccc(OCc3cncc(-n4ccc5c(N)ncnc54)c3)cc2n1 [Compound I-98] | 0.01 to 0.1 |  | > 1 | > 1
28 | CN(Cc1cncc(-n2cc(-c3ccn(C)n3)c3c(N)ncnc32)c1)CC1CC1 [Compound I-100] | > 1 |  | > 1 | > 1
29 | Nc1ccc2ccc(OCc3cncc(-n4ccc5c(N)ncnc54)c3)cc2n1 [Compound I-240] | 0.01 to 0.1 |  | > 1 | > 1
